System: K86415-001-R-J1-PDC complex spheroids, viability
Experiment: Anticancer human tumor K86415-001-R-J1-PDC patient-derived lung adenocarcinoma cell line growth inhibition [RAS]
Details: for IC50: curve of first compound; for viability, T/C: stronger effect = lower value
Excerpt: RAS pathway inhibitors in Combinations in Complex Spheroids
A high-throughput screen of multi-cell type tumor spheroids was designed to identify active combinations of RAS pathway inhibitors and targeted small molecules. Complex spheroids include a stromal component modeled by human endothelial cells (HUVEC) and fibroblasts modeled by human mesenchymal stem cells (MSCs). The concentration ranges selected for each drug and investigational agent were based upon clinically achievable concentrations if the clinical Cmax of the agent was known.
Compounds. The drugs and investigational agents: abemaciclib (NSC768073), cobimetinib (NSC768068), divarasib (GDC6063, NSC841802), docetaxel (NSC628503), GDC-1971 (RLY-1971, NSC841576), gemcitabine (NSC613327), inavolisib (NSC800729), ipatasertib (NSC767898), KB-0742 (NSC834161), MRTX-1133 (NSC836407), osimertinib (NSC779217), RMC-4630 (NSC839698), RMC-6236 (NSC851965), RMC-6291 (NSC852671), Ro-3306 (NSC812927), sapanisertib (NSC764658), SN-38 (NSC673596), staurosporine (NSC755774), SY5609 (NSC837396), and tovorafenib (DAY101, NSC766906), were obtained from the National Cancer Institute (NCI) Developmental Therapeutics Program Chemical Repository. The FDA-approved anticancer drug set is available from the NCI Developmental Therapeutics Program. […] The stock solutions were prepared in dimethyl sulfoxide (DMSO, Sigma-Aldrich, St. Louis, MO, cat. D2650) at 800-fold the tested concentration and stored at -70 degrees C prior to their use. All drugs and investigational agents were tested over a range starting from a high concentration at or near the clinical Cmax and decreasing in half-log increments. If the clinical Cmax for an agent had not been determined, the highest concentration tested was 10 microM.
Cell Culture. All cells were maintained in an incubator at 37 degrees C and 5% CO2 with 95% humidity. The PDC lines were cultured according to standard operating procedures established by the NCI PDMR. All PDCs were thawed and cultured in Matrigel-coated flasks prepared with a working solution of 1X Ham's F-12 nutrient mix, without supplementation (Invitrogen, Waltham, MA, cat. 11765054), 100 U/mL penicillin-streptomycin (Invitrogen, cat. 15140122), and 2.5% Matrigel (Corning Inc., Corning, NY, cat. 354248) for the first three passages. The 362531-283-R-J2-PDC and 782815-120-R-J1-PDC lines were cultured in 6C/Colon 1B media, which includes advanced DMEM/F-12 (Thermo Fisher Scientific, cat. 12634028), 10 mM HEPES (Thermo Fisher Scientific, cat. 15630080), 1X GlutaMAX supplement (Thermo Fisher Scientific, cat. 35050061), 0.1 mg/mL primocin (InvivoGen, San Diego, CA, cat. ant-pm-2), 10% defined fetal bovine serum, heat inactivated (HyClone Laboratories Inc., Logan, UT, cat. SH30070.03HI), 50% L-WRN conditioned media (ATCC, cat. CRL-3276), 1.25 mM N-Acetyl-L-cysteine (Sigma-Aldrich, cat. A9165), 10 mM nicotinamide (Sigma-Aldrich, cat. N0636), 1X B-27 supplement (Thermo Fisher Scientific, cat. 17504044), 1X N-2 supplement (Thermo Fisher Scientific, cat. 17502048), 50 ng/mL human EGF (Thermo Fisher Scientific, cat. PHG0311), and 10 microM Y-27632 dihydrochloride (Tocris Bioscience, cat. 1254). The K12877-001-R-J1-PDC line was cultured in 6I media, which includes all 6C/Colon 1B media plus 10 ng/mL human FGF-10 (PeproTech, cat. 100-26), 1 ng/mL human FGF-2 (PeproTech, cat. 100-18B), 1 µM prostaglandin E2 (Tocris Bioscience, cat. 2296), […] hydrocortisone (Sigma-Aldrich, cat. H4001), and […] bovine insulin (Sigma-Aldrich, cat. I6634). The K86415-001-R-J1-PDC line was cultured in 6D media, which includes all 6C/Colon 1B media components minus the L-WRN conditioned media. The 485176-168-R4-J1-PDC was cultured in PANC media, which includes all 6C/Colon 1B media plus 100 ng/mL human FGF-10 (PeproTech, cat. 100-26), 500 nM SB-431542 (Selleckchem, cat. S1067), and 10 nM gastrin (Tocris Bioscience, cat. 3006). […]
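Also: spheroids exposed to agents for seven days before readout.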

## CCC(CC)c1cc(NC2CCC(N)C2)n2nccc2n1 (configuration not stated) + CCn1c(-c2cccnc2C(C)OC)c2c3cc(ccc31)N1CCOC(CC(NC(=O)C(C(C)C)N(C)C(=O)C3(F)CCN(C(=O)C#CC(C)(C)N(C)C)CC3)C(=O)N3CCCC(N3)C(=O)OCC(C)(C)C2)C1
Second compound 0.000949 µM
  IC50: 31.6 nM
Second compound 0.003 µM
  IC50: < 31.6 nM
Second compound 0.00949 µM
  IC50: < 31.6 nM
Second compound 0.03 µM
  IC50: < 31.6 nM
Second compound 0.0949 µM
  IC50: < 31.6 nM
Second compound 0.3 µM
  IC50: < 31.6 nM
Second compound 0.000949 µM, first compound 0.0316 µM
  viability, T/C: 37.5%
Second compound 0.000949 µM, first compound 0.1 µM
  viability, T/C: 40.4%
Second compound 0.000949 µM, first compound 0.316 µM
  viability, T/C: 39.2%
Second compound 0.000949 µM, first compound 1 µM
  viability, T/C: 61.9%
Second compound 0.000949 µM, first compound 3.16 µM
  viability, T/C: 2.95%
Second compound 0.000949 µM, first compound 10 µM
  viability, T/C: 2.43%
Second compound 0.003 µM, first compound 0.0316 µM
  viability, T/C: 14.9%
Second compound 0.003 µM, first compound 0.1 µM
  viability, T/C: 14.6%
Second compound 0.003 µM, first compound 0.316 µM
  viability, T/C: 13%
Second compound 0.003 µM, first compound 1 µM
  viability, T/C: 20.1%
Second compound 0.003 µM, first compound 3.16 µM
  viability, T/C: 3.32%
Second compound 0.003 µM, first compound 10 µM
  viability, T/C: 3.8%
Second compound 0.00949 µM, first compound 0.0316 µM
  viability, T/C: 15.2%
Second compound 0.00949 µM, first compound 0.1 µM
  viability, T/C: 12.3%
Second compound 0.00949 µM, first compound 0.316 µM
  viability, T/C: 15%
Second compound 0.00949 µM, first compound 1 µM
  viability, T/C: 20.3%
Second compound 0.00949 µM, first compound 3.16 µM
  viability, T/C: 2.22%
Second compound 0.00949 µM, first compound 10 µM
  viability, T/C: 3.83%
Second compound 0.03 µM, first compound 0.0316 µM
  viability, T/C: 12.6%
Second compound 0.03 µM, first compound 0.1 µM
  viability, T/C: 12.1%
Second compound 0.03 µM, first compound 0.316 µM
  viability, T/C: 15.5%
Second compound 0.03 µM, first compound 1 µM
  viability, T/C: 13.3%
Second compound 0.03 µM, first compound 3.16 µM
  viability, T/C: 1.81%
Second compound 0.03 µM, first compound 10 µM
  viability, T/C: 3.54%
Second compound 0.0949 µM, first compound 0.0316 µM
  viability, T/C: 12.4%
Second compound 0.0949 µM, first compound 0.1 µM
  viability, T/C: 13.6%
Second compound 0.0949 µM, first compound 0.316 µM
  viability, T/C: 15.6%
Second compound 0.0949 µM, first compound 1 µM
  viability, T/C: 13.9%
Second compound 0.0949 µM, first compound 3.16 µM
  viability, T/C: 1.94%
Second compound 0.0949 µM, first compound 10 µM
  viability, T/C: 3.52%
Second compound 0.3 µM, first compound 0.0316 µM
  viability, T/C: 11.8%
Second compound 0.3 µM, first compound 0.1 µM
  viability, T/C: 14.9%
Second compound 0.3 µM, first compound 0.316 µM
  viability, T/C: 12.4%
Second compound 0.3 µM, first compound 1 µM
  viability, T/C: 9.04%
Second compound 0.3 µM, first compound 3.16 µM
  viability, T/C: 2.28%
Second compound 0.3 µM, first compound 10 µM
  viability, T/C: 3.42%

From PubChem BioAssay AID2060893 (Molecular Pharmacology Branch, DTP, NCI, 2025)
